Type in all cases: cell-based
For one assay, the target named is T1, PLK1 (Homo sapiens, UniProt P53350).
T1 construct: endogenous in cells; host or cells: HeLa LgBit (PLK1-HiBit KI): HeLa cells stably expressing LgBit, with CRISPR/Cas9 knock-in of HiBit at the endogenous PLK1 locus
As to the kind of experiment: Luciferase assay for PLK1 in HeLa LgBit (PLK1-HiBit KI) cell line. The note with it: released after thymidine block, compound 300 nM, luminescence after 9 hours. The procedure: A HeLa cell line in which the LgBit vector was transfected and expressed stably was prepared. Then, after constructing gRNA and donor to express the HiBit amino acid sequence behind the C-terminal of the PLK1 gene, which was inherent in the cell, it was inserted into the cell together with a vector capable of expressing CRISPR/Cas9. Only the cells in which the insertion was completed and knock-in had progressed were selected, sub-cultured and used.
The compounds of Examples were completely dissolved in DMSO (Sigma-Aldrich Cat. No. D2438, Lot. No. RNBL5438) and used in the experiment.
In the case of HeLa LgBit (Plk1-HiBit KI), the compounds were treated after being released after thymidine block, and the process was as follows. Thymidine (Sigma-Aldrich Cat. No. T9250-5G) was completely dissolved in ddH2O and used in the experiment. For thymidine block, the products were treated with 2 mM of thymidine and then incubated for 24 hours. For release and chemical treatment, the medium was suctioned and washed with 1×PBS. TrypLE™ was added and incubated in 37° C. CO2 incubator (Thermo Fisher Science, Cat. No. 4111) for 5 mins. Cells neutralized by adding complete media were counted through a counter. For each well of a 96-well culture plate (SPL), 3.3×10^4 cells and a total medium volume of 150 μl were seeded and incubated in a CO2 incubator.
Each cell line was incubated in a CO2 incubator for 18 hours, and Endurazine (Promega, Cat. No. N257B) was added to each well to make up 4% of the total volume. After adding compounds of Examples in a 96-well white plate (SPL) to a concentration of 300 nM, the wavelength of the plate reader (BMG Labtech, CLARIOstar Plus) was set to 470-480 nM, and then the luminescence was tracked in real time.
A general note: HiBiT is a short tag that completes a luciferase, so light tracks the accessible tagged protein.

A further assay has as its system NCI-H69 (H69) cell line. As to the kind of experiment: Cell viability assay for NCI-H69 cell line. The conditions noted are these: Homo sapiens, NCI-H69, 120 h, 5 days, EZ-Cytox, 0.46-3000 nM. The source says:
(§1) The NCI-H69 (hereafter H69) and NCI-H526 (hereafter H526) cell lines were purchased from Korea Cell Line Bank (KCLB, Seoul, Korea). For cell culture, RPMI 1640 (Gibco, Cat. No. 22400-089; Lot. No. 2537146), FBS (Gibco, Cat. No. 16000-044; Lot. No. 2511328P), Penicillin/Streptomycin (PS) (Gibco, Cat. No. 15140-122; Lot. No. 2441887), 75T cell culture flask (SPL, Cat. No. 71075), 175T cell culture flask (SPL, Cat. No. 71175), 96-well cell culture plate (SPL, Cat. No. 30096), PBS pH 7.4 (Gibco, Cat. No. 10010-023; Lot. No. 2509235), TrypLE™ Express (Gibco, Cat. No. 12605-010; Lot. No. 2323417), Cell Counter (Hematocytometer)(As one, Cat. No. 4-458-01), and 0.4% Trypan Blue Solution (DYNEBIO, Cat. No. CBT3710; Lot. No. 20221111) were used.
(§2) The compounds of Examples were completely dissolved in DMSO (Sigma-Aldrich Cat. No. D2438, Lot. No. RNBL7287) and used in the experiment. 3×10^4 cells were seeded for each well of a 96-well plate (SPL), and the cells were cultured in total volume of 150 μl. Each compound was diluted 3-folds from the highest concentration of 3000 nM to the lowest concentration of 0.46 nM. After treating the compound to each well to make the total volume of 200 μl, it was cultured in a CO2 incubator (Thermo Fisher Science, Cat. No. 4111) for 5 days. Then, after treating EZ-Cytox (DOGEN, Cat.NO. EZ-3000, Lot. No. DLS2308) 20 μl in each well, it was cultured in CO2 incubator for 4 hours. The absorbance of the completely cultured sample was measured by setting the wavelength of a plate reader (BMG Labtech, CLARIOstar Plus) to […], and was measured after shaking for 3 minutes in a plate reader before measurement.
(§3) (A: IC50 is less than 20 nM, B: IC50 is 50 nM or less, C: IC50 is 100 nM or less)

Assay [1] has as its system NCI-H526 (H526) cell line. As to the kind of experiment: Cell viability assay for NCI-H526 cell line. The conditions noted are these: Homo sapiens, NCI-H526, 120 h, 5 days, EZ-Cytox, 0.46-3000 nM.
From the text: as §1, §2, §3

Each structure is given as a SMILES string.

T1 sequence (P53350 whole entry): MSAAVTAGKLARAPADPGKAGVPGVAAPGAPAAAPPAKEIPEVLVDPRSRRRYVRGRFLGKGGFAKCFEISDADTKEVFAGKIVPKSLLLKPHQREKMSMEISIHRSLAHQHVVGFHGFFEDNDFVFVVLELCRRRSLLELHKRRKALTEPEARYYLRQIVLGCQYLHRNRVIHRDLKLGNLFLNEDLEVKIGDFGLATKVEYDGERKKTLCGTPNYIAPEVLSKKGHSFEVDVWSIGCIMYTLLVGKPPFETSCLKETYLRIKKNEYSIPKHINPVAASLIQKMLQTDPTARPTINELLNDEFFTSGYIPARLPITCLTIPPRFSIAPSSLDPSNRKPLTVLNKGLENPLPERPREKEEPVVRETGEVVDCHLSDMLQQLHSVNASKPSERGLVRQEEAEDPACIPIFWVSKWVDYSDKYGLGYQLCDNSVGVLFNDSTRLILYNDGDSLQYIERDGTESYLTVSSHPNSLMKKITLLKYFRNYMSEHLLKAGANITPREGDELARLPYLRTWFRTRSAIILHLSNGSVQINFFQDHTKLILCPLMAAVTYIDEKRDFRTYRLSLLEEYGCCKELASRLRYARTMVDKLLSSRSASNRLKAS

Consider `CC[C@@H]1C(=O)N(C)c2cnc(Nc3ccc(C(=O)NC4CCC(N5CCN(CCCc6ccc(NC7CCC(=O)NC7=O)cc6)CC5)CC4)cc3OC)nc2N1C1CCCC1` (stereo partly drawn) [Compound 3, 4-(((R)-8-cyclopentyl-7-ethyl-5-methyl-6-oxo-5,6,7,8-tetrahydropteridin-2-yl)amino)-N-((1r,4R)-4-(4-(3-(4-((2,6-dioxopiperidin-3-yl)amino)phenyl)propyl)piperazin-1-yl)cyclohexyl)-3-methoxybenzamide], for which the “Value (luminescence value, PLK1-HiBit)” value at PLK1 is given as 0.253. Moreover, the IC50 (with NCI-H69 (H69) cell line; in assay [1]) was < 20 nM throughout.
Regarding `COc1cc(C(=O)NC2CCN(C(=O)CCN3CCN(c4ccc(NC5CCC(=O)NC5=O)cc4)CC3)CC2)ccc1Nc1ncc2c(n1)N(C1CCCC1)CC1(CC1)C(=O)N2C` (stereo not drawn) [Compound 29, 4-((9′-cyclopentyl-5′-methyl-6′-oxo-5′,6′,8′,9′-tetrahydrospiro[cyclopropane-1,7′-pyrimido[4,5-b][1,4]diazepin]-2′-yl)amino)-N-(1-(3-(4-(4-((2,6-dioxopiperidin-3-yl)amino)phenyl)piperazin-1-yl)propanoyl)piperidin-4-yl)-3-methoxybenzamide], at PLK1, the “Value (luminescence value, PLK1-HiBit)” value was 0.267. Further, the IC50 was ≤ 100 nM with NCI-H69 (H69) cell line and ≤ 50 nM in assay [1].
`COc1cc(C(=O)NCC2CCN(CC3CCN(c4ccc(C5CCC(=O)NC5=O)cc4)CC3)CC2)ccc1Nc1ncc2c(n1)N(C1CCCC1)CC(F)(F)C(=O)N2C` (stereo not drawn) [Compound 27, 4-((9-cyclopentyl-7,7-difluoro-5-methyl-6-oxo-6,7,8,9-tetrahydro-5H-pyrimido[4,5-b][1,4]diazepin-2-yl)amino)-N-((1-((1-(4-(2,6-dioxopiperidin-3-yl)phenyl)piperidin-4-yl)methyl)piperidin-4-yl)methyl)-3-methoxybenzamide]: the “Value (luminescence value, PLK1-HiBit)” value at PLK1 stood at 0.295. The IC50 (in the assay on NCI-H69 (H69) cell line; in assay [1]) was ≤ 50 nM throughout.
For `COc1cc(C(=O)NC2CCN(C(=O)CCN3CCN(c4ccc(NC5CCC(=O)NC5=O)cc4F)CC3)CC2)ccc1Nc1ncc2c(n1)N(C1CCCC1)CC(F)(F)C(=O)N2C` (stereo not drawn) [Compound 26, 4-((9-cyclopentyl-7,7-difluoro-5-methyl-6-oxo-6,7,8,9-tetrahydro-5H-pyrimido[4,5-b][1,4]diazepin-2-yl)amino)-N-(1-(3-(4-(4-((2,6-dioxopiperidin-3-yl)amino)-2-fluorophenyl)piperazin-1-yl)propanoyl)piperidin-4-yl)-3-methoxybenzamide], the “Value (luminescence value, PLK1-HiBit)” value at PLK1 is 0.269. Also, the IC50 was ≤ 50 nM in the assay with NCI-H69 (H69) cell line and < 20 nM in assay [1].
As to `CC[C@@H]1C(=O)N(C)c2cnc(Nc3ccc(C(=O)NC4CCN(C(=O)C(N)CN5CCN(c6ccc(C7CCC(=O)NC7=O)cc6)CC5)CC4)cc3OC)nc2N1C1CCCC1` (stereo partly drawn) [Compound 11, N-(1-(2-amino-3-(4-(4-(2,6-dioxopiperidin-3-yl)phenyl)piperazin-1-yl)propanoyl)piperidin-4-yl)-4-(((R)-8-cyclopentyl-7-ethyl-5-methyl-6-oxo-5,6,7,8-tetrahydropteridin-2-yl)amino)-3-methoxybenzamide], at PLK1, the “Value (luminescence value, PLK1-HiBit)” value stood at 0.234. The IC50 with NCI-H69 (H69) cell line is ≤ 50 nM; in assay [1] it was < 20 nM.
For `CC[C@@H]1C(=O)N(C)c2cnc(Nc3ccc(-c4nnc(CNC5CCC(NCC6CCN(c7ccc(C8CCC(=O)NC8=O)cc7F)CC6)CC5)o4)cc3OC)nc2N1C1CCCC1` (stereo partly drawn) [Compound 17, 3-(4-(4-((((1r,4r)-4-(((5-(4-(((R)-8-cyclopentyl-7-ethyl-5-methyl-6-oxo-5,6,7,8-tetrahydropteridin-2-yl)amino)-3-methoxyphenyl)-1,3,4-oxadiazol-2-yl)methyl)amino)cyclohexyl)amino)methyl)piperidin-1-yl)-3-fluorophenyl)piperidine-2,6-dione] the same measures were 0.172, ≤ 50 nM and < 20 nM.
In the case of `CC[C@@H]1C(=O)N(C)c2cnc(Nc3ccc(C(=O)NC4CCC(N5CCN(CCc6ccc(C7CCC(=O)NC7=O)cc6)CC5)CC4)cc3OC)nc2N1C1CCCC1` (stereo partly drawn) [Compound 20, 4-(((R)-8-cyclopentyl-7-ethyl-5-methyl-6-oxo-5,6,7,8-tetrahydropteridin-2-yl)amino)-N-((1r,4R)-4-(4-(4-(2,6-dioxopiperidin-3-yl)phenethyl)piperazin-1-yl)cyclohexyl)-3-methoxybenzamide], the “Value (luminescence value, PLK1-HiBit)” value on PLK1 turned out to be 0.154. In addition, the half-maximal inhibitory concentration (IC50) (with NCI-H69 (H69) cell line; in assay [1]) was < 20 nM in each case.
For `CC[C@@H]1C(=O)N(C)c2cnc(Nc3ccc(C(=O)NC4CCN(C(=O)C(N)CN5CCN(c6cccc7c6C(=O)N(C6CCC(=O)NC6=O)C7=O)CC5)CC4)cc3OC)nc2N1C1CCCC1` (stereo partly drawn) [Compound 9, N-(1-(2-amino-3-(4-(2-(2,6-dioxopiperidin-3-yl)-1,3-dioxoisoindolin-4-yl)piperazin-1-yl)propanoyl)piperidin-4-yl)-4-(((R)-8-cyclopentyl-7-ethyl-5-methyl-6-oxo-5,6,7,8-tetrahydropteridin-2-yl)amino)-3-methoxybenzamide], at PLK1, the “Value (luminescence value, PLK1-HiBit)” value came to 0.377. Besides, the IC50 is ≤ 100 nM in the assay on NCI-H69 (H69) cell line and < 20 nM in assay [1].
Regarding `CC[C@@H]1C(=O)N(C)c2cnc(Nc3ccc(C(=O)NC4CCC(N5CCC(NCc6cccc7c6CN(C6CCC(=O)NC6=O)C7=O)CC5)CC4)cc3OC)nc2N1C1CCCC1` (stereo partly drawn) [Compound 12, 4-(((R)-8-cyclopentyl-7-ethyl-5-methyl-6-oxo-5,6,7,8-tetrahydropteridin-2-yl)amino)-N-((1r,4R)-4-(4-(((2-(2,6-dioxopiperidin-3-yl)-1-oxoisoindolin-4-yl)methyl)amino)piperidin-1-yl)cyclohexyl)-3-methoxybenzamide], the “Value (luminescence value, PLK1-HiBit)” value at PLK1 worked out at 0.372. Further, the IC50 is ≤ 100 nM in the assay with NCI-H69 (H69) cell line and ≤ 50 nM in assay [1].

The IC50 is the concentration needed to halve the response being measured. Read a high IC50 as weaker potency.

The values are drawn from patent US20260199367A1, “PLK1 DEGRADATION INDUCING COMPOUNDS WITH INCREASED RIGIDITY” (UPPTHERA, INC., priority 2022, published 2026).
